Assay results as given in PubChem BioAssay AID196 (DTP/NCI, 2004).
“And” between values parts separate entries of the source, which are not always exact repeats. Identical values can stand only once. Inconclusive results and toxic doses are left out.

System: BDF1 mice, intracerebral B16 melanoma, median survival T/C
Assay: NCI In Vivo Anticancer Drug Screen. Data for tumor model B16 Melanoma (intracerebral) in B6D2F1 (BDF1) mice
Conditions: endpoint: median survival time, higher = longer survival
Procedure: The antitumor activity of compounds was measured in mice bearing transplantable tumors. Survival or tumor size were measured and the results are expressed as the measurement made in the treated group (T) divided by the measurement made in the vehicle treated control group (C). The tumor model used in this assay is B16 Melanoma (intracerebral) in B6D2F1 (BDF1) mice

[1] = dose: 4.0 mg/kg/injection, schedule: Q01DX009 (ip), vehicle: saline
[2] = dose: 16.0 mg/kg/injection, schedule: Q01DX009 (ip), vehicle: saline with Tween-80
[3] = dose: 2.0 mg/kg/injection, schedule: Q01DX009 (ip), vehicle: Klucel (hydroxypropylcellulose) (HPC)
[4] = dose: 17.8 mg/kg/injection, schedule: Q01DX001 (ip), vehicle: Klucel (hydroxypropylcellulose) (HPC)
[5] = dose: 40.0 mg/kg/injection, schedule: Q01DX001 (ip), vehicle: Klucel (hydroxypropylcellulose) (HPC)
[6] = dose: 60.0 mg/kg/injection, schedule: Q01DX001 (ip), vehicle: Klucel (hydroxypropylcellulose) (HPC)
[7] = dose: 90.0 mg/kg/injection, schedule: Q01DX001 (ip), vehicle: Klucel (hydroxypropylcellulose) (HPC)
[8] = dose: 64.0 mg/kg/injection, schedule: Q01DX005 (ip), vehicle: saline with Tween-80
[9] = dose: 128.0 mg/kg/injection, schedule: Q01DX005 (ip), vehicle: saline with Tween-80

O=C1c2ccccc2C(=O)c2c(NCCNCCO)ccc(NCCNCCO)c21
T/C (dose: 1.0 mg/kg/injection, schedule: Q01DX005 (ip), vehicle: saline with Tween-80): 120 % of control and 111 % of control
T/C (dose: 1.0 mg/kg/injection, schedule: Q01DX005 (ip), vehicle: saline): 99 % of control and 107 % of control
T/C (dose: 2.0 mg/kg/injection, schedule: Q01DX005 (ip), vehicle: saline with Tween-80): 118 % of control and 109 % of control
T/C (dose: 2.0 mg/kg/injection, schedule: Q01DX005 (ip), vehicle: saline): 120 % of control and 99 % of control
T/C (dose: 4.0 mg/kg/injection, schedule: Q01DX005 (ip), vehicle: saline with Tween-80): 109 % of control
T/C (dose: 4.0 mg/kg/injection, schedule: Q01DX005 (ip), vehicle: saline): 104 % of control and 112 % of control
T/C (dose: 4.0 mg/kg/injection, schedule: Q01DX009 (ip), vehicle: saline with Tween-80): 99 % of control and 102 % of control
T/C [1]: 95 % of control and 103 % of control
T/C (dose: 8.0 mg/kg/injection, schedule: Q01DX009 (ip), vehicle: saline with Tween-80): 93 % of control and 102 % of control
T/C (dose: 8.0 mg/kg/injection, schedule: Q01DX009 (ip), vehicle: saline): 98 % of control and 102 % of control
T/C (dose: 16.0 mg/kg/injection, schedule: Q01DX005 (ip), vehicle: Klucel (hydroxypropylcellulose) (HPC)): 116 % of control
T/C [2]: 100 % of control
T/C (dose: 16.0 mg/kg/injection, schedule: Q01DX009 (ip), vehicle: saline): 102 % of control and 103 % of control
T/C (dose: 32.0 mg/kg/injection, schedule: Q01DX005 (ip), vehicle: Klucel (hydroxypropylcellulose) (HPC)): 107 % of control
T/C (dose: 32.0 mg/kg/injection, schedule: Q01DX009 (ip), vehicle: saline): 86 % of control

CC1CCC(NC(=O)N(CCCl)N=O)CC1 (configuration not stated)
T/C (dose: 0.5 mg/kg/injection, schedule: Q01DX009 (ip), vehicle: Klucel (hydroxypropylcellulose) (HPC)): 105 % of control
T/C (dose: 1.0 mg/kg/injection, schedule: Q01DX009 (ip), vehicle: Klucel (hydroxypropylcellulose) (HPC)): 102 % of control
T/C [3]: 111 % of control
T/C (dose: 4.0 mg/kg/injection, schedule: Q01DX009 (ip), vehicle: Klucel (hydroxypropylcellulose) (HPC)): 117 % of control
T/C (dose: 6.48 mg/kg/injection, schedule: Q01DX001 (ip), vehicle: other): 106 % of control
T/C (dose: 10.8 mg/kg/injection, schedule: Q01DX001 (ip), vehicle: other): 117 % of control
T/C (dose: 50.0 mg/kg/injection, schedule: Q01DX001 (ip), vehicle: other): 118 % of control

COc1ccc2c(c1OC(C)=O)-c1cc(O)cc3c1C(C2)N(C(=O)CN(CCCl)CCCl)CC3 (configuration not stated)
T/C (dose: 3.12 mg/kg/injection, schedule: Q01DX009 (ip), vehicle: saline with Tween-80): 96 % of control
T/C (dose: 6.25 mg/kg/injection, schedule: Q01DX009 (ip), vehicle: saline with Tween-80): 100 % of control
T/C (dose: 8.0 mg/kg/injection, schedule: Q01DX005 (ip), vehicle: DMSO): 104 % of control
T/C (dose: 12.5 mg/kg/injection, schedule: Q01DX009 (ip), vehicle: saline with Tween-80): 93 % of control
T/C (dose: 16.0 mg/kg/injection, schedule: Q01DX005 (ip), vehicle: DMSO): 106 % of control

O=NN(CCCl)C(=O)NC1CCCCC1
T/C [3]: 116 % of control
T/C (dose: 2.4 mg/kg/injection, schedule: Q01DX001 (ip), vehicle: other): 116 % of control
T/C (dose: 4.0 mg/kg/injection, schedule: Q01DX009 (ip), vehicle: other): 124 % of control
T/C (dose: 4.7 mg/kg/injection, schedule: Q01DX001 (ip), vehicle: other): 100 % of control
T/C (dose: 7.5 mg/kg/injection, schedule: Q01DX009 (ip), vehicle: saline): 118 % of control
T/C (dose: 8.0 mg/kg/injection, schedule: Q01DX009 (ip), vehicle: Klucel (hydroxypropylcellulose) (HPC)): 161 % of control
T/C (dose: 8.0 mg/kg/injection, schedule: Q04DX003 (ip), vehicle: Klucel (hydroxypropylcellulose) (HPC)): 102 % of control
T/C (dose: 9.5 mg/kg/injection, schedule: Q01DX001 (ip), vehicle: other): 121 % of control
T/C (dose: 13.0 mg/kg/injection, schedule: Q01DX001 (ip), vehicle: other): 118 % of control
T/C (dose: 15.0 mg/kg/injection, schedule: Q01DX009 (ip), vehicle: saline): 150 % of control
T/C (dose: 16.0 mg/kg/injection, schedule: Q01DX009 (ip), vehicle: Klucel (hydroxypropylcellulose) (HPC)): 154 % of control
T/C (dose: 16.0 mg/kg/injection, schedule: Q01DX009 (ip), vehicle: other): 118 % of control
T/C [2]: 213 % of control
T/C (dose: 16.0 mg/kg/injection, schedule: Q04DX003 (ip), vehicle: Klucel (hydroxypropylcellulose) (HPC)): 102 % of control
T/C [4]: 113 % of control
T/C (dose: 18.9 mg/kg/injection, schedule: Q01DX001 (ip), vehicle: other): 123 % of control
T/C (dose: 30.0 mg/kg/injection, schedule: Q01DX009 (ip), vehicle: saline): 290 % of control
T/C (dose: 32.0 mg/kg/injection, schedule: Q01DX009 (ip), vehicle: Klucel (hydroxypropylcellulose) (HPC)): 95 % of control
T/C (dose: 32.0 mg/kg/injection, schedule: Q04DX003 (ip), vehicle: saline): 220 % of control
T/C (dose: 36.0 mg/kg/injection, schedule: Q01DX001 (ip), vehicle: Klucel (hydroxypropylcellulose) (HPC)): 224 % of control
T/C (dose: 36.0 mg/kg/injection, schedule: Q01DX001 (ip), vehicle: other): 338 % of control
T/C (dose: 37.8 mg/kg/injection, schedule: Q01DX001 (ip), vehicle: other): 173 % of control
T/C [5]: 150 % of control
T/C [6]: 202 % of control and 212 % of control
T/C [7]: 90 % of control

CN(C)N=Nc1ccc([N+](=O)[O-])cc1C(N)=O
T/C (dose: 16.0 mg/kg/injection, schedule: Q01DX005 (ip), vehicle: saline with Tween-80): 100 % of control
T/C (dose: 32.0 mg/kg/injection, schedule: Q01DX005 (ip), vehicle: saline with Tween-80): 105 % of control
T/C [8]: 110 % of control
T/C [9]: 107 % of control

Nc1nncs1
T/C [8]: 100 % of control and 107 % of control
T/C [9]: 119 % of control and 97 % of control
T/C (dose: 256.0 mg/kg/injection, schedule: Q01DX005 (ip), vehicle: saline with Tween-80): 113 % of control
T/C (dose: 512.0 mg/kg/injection, schedule: Q01DX005 (ip), vehicle: saline with Tween-80): 113 % of control

COC1=C(N2CC2)C(=O)C(OC)=C(N2CC2)C1=O
T/C (dose: 0.5 mg/kg/injection, schedule: Q01DX009 (ip), vehicle: saline): 115 % of control
T/C (dose: 1.0 mg/kg/injection, schedule: Q01DX009 (ip), vehicle: saline): 107 % of control
T/C (dose: 2.0 mg/kg/injection, schedule: Q01DX009 (ip), vehicle: saline): 117 % of control
T/C [1]: 86 % of control

O=P1(N(CCCl)CCCl)NCCCO1 (configuration not stated)
T/C (dose: 12.5 mg/kg/injection, schedule: Q01DX009 (ip), vehicle: saline): 116 % of control and 92 % of control
T/C (dose: 12.5 mg/kg/injection, schedule: Q01DX009 (ip), vehicle: water): 108 % of control
T/C (dose: 25.0 mg/kg/injection, schedule: Q01DX009 (ip), vehicle: saline): 100 % of control and 108 % of control
T/C (dose: 25.0 mg/kg/injection, schedule: Q01DX009 (ip), vehicle: water): 116 % of control
T/C (dose: 50.0 mg/kg/injection, schedule: Q01DX009 (ip), vehicle: saline): 120 % of control and 121 % of control
T/C (dose: 100.0 mg/kg/injection, schedule: Q01DX009 (ip), vehicle: saline): 95 % of control
T/C (dose: 100.0 mg/kg/injection, schedule: Q01DX009 (ip), vehicle: water): 104 % of control

O=NN(CCF)C(=O)NC1CCCCC1
T/C (dose: 5.1 mg/kg/injection, schedule: Q01DX001 (ip), vehicle: other): 107 % of control
T/C (dose: 10.2 mg/kg/injection, schedule: Q01DX001 (ip), vehicle: other): 112 % of control
T/C (dose: 13.0 mg/kg/injection, schedule: Q01DX001 (ip), vehicle: Klucel (hydroxypropylcellulose) (HPC)): 104 % of control
T/C [4]: 111 % of control
T/C (dose: 21.6 mg/kg/injection, schedule: Q01DX001 (ip), vehicle: Klucel (hydroxypropylcellulose) (HPC)): 174 % of control
T/C (dose: 26.7 mg/kg/injection, schedule: Q01DX001 (ip), vehicle: Klucel (hydroxypropylcellulose) (HPC)): 115 % of control
T/C [5]: 180 % of control
T/C (dose: 43.2 mg/kg/injection, schedule: Q01DX001 (ip), vehicle: other): 180 % of control
T/C [6]: 168 % of control and 269 % of control
T/C [7]: 263 % of control
T/C (dose: 162.8 mg/kg/injection, schedule: Q01DX001 (ip), vehicle: other): 235 % of control
